# From US6008226A, “Substituted N-arylmethyl and heterocylylmethyl-1H-pyrazolo[3,4-b]quinolin-4-amines and compositions and methods of use thereof” (Sanofi-Synthelabo, priority 1998, dated 1999)
# Test system: Spontaneously hypertensive rats
# Assay: reversing or reducing nitrate-induced tolerance in spontaneously hypertensive rats
# Assay type: in vivo, rat
# Procedure: Spontaneously hypertensive rats (17-25 weeks of age) are made nitroglycerin tolerant by repeated administration of high doses of nitroglycerin (100 mg/kg, s.c., 3 times/day for 3 consecutive days). To confirm tolerance challenge doses of nitroglycerin are administered intravenously at doses ranging from 1-300 μg/kg and the maximum change in mean arterial pressure (MAP) for each dose is recorded. Groups of tolerant rats are then pretreated with the compounds of the invention (tolerant pretreated group) or with vehicle (0.05 N NaOH) (tolerant vehicle pretreated group) intravenously 5-10 minutes prior to administration of challenge doses of nitroglycerin. The administration of challenge doses of nitroglycerin to non-tolerant rats (the non-tolerant group) causes a dose-dependent decrease in MAP of between 10 to 40 mm Hg. […] It is expected that the administration of challenge doses of nitroglycerin to tolerant rats which have been pretreated with the compounds of the invention (tolerant pretreated group) should result in varying degrees of restoration of the hypotensive response. The area under the dose-MAP curve is then calculated for the non-tolerant group and for the tolerant vehicle pretreated group and the tolerant pretreated group. The percent reversal of nitrate-inducedtolerance is then calculated as follows:
# Percent Reversal=(AUCtol-pretreated -AUCtol-veh)/(AUCnontol […]
compound,measurement,setting,value
O=[N+]([O-])OCC(CO[N+](=O)[O-])O[N+](=O)[O-] [nitroglycerin],dose-dependent decrease in MAP,"non-tolerant rats, nitroglycerin challenge 1-300 μg/kg iv",10 to 40 mm Hg
same,hypotensive response to challenge doses of nitroglycerin,"tolerant vehicle pretreated group, 1-300 μg/kg iv",significant reduction of the hypotensive response
